Results: patent US20240383908A1, “SYNTHESIS AND APPLICATION OF PHOSPHATASE DEGRADER” (HINOVA PHARMACEUTICALS INC., priority 2021, published 2024)

Molecular target: T1, SHP2 protein (Homo sapiens, UniProt Q06124)
T1 sequence (Q06124 1-593): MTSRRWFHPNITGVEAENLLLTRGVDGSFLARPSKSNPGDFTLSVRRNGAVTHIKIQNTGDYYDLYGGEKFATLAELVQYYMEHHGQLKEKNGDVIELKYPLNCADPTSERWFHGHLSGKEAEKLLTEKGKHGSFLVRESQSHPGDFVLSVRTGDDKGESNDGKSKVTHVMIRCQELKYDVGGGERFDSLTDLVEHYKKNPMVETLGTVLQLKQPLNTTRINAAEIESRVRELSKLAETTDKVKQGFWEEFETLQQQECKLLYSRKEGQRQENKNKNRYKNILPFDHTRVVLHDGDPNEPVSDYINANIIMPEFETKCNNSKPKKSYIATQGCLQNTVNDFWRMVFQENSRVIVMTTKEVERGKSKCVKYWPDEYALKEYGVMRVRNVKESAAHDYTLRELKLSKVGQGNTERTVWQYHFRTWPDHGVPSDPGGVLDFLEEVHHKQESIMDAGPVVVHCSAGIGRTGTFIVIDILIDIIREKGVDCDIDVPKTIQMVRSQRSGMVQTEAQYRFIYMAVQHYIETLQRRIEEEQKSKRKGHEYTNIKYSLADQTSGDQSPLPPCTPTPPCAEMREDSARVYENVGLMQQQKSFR
Experiment: Degradation activity on SHP2 protein in MIA Paca-2 cells (Western blot, DC50)
Type: cell-based
Parameters: endogenous in cells; host or cells: MIA Paca-2 cells
Conditions: read-out: Degradation activity for differenct cell lines MIA Paca-2 (DC50)
Description: (1) MV-411 cells were cultured in the cell culture medium, and then well-growing cells were selected and inoculated in a 12-well plate, with 1 mL/well and 1×10^6 cells/well. The plate was incubated overnight in a 5% CO2 cell incubator at 37° C.
(2) 10 mM storage solution of each drug was prepared using dimethylsulfoxide (DMSO). The stock solution was diluted gradually with DMSO before use, and then 1 μL of the compound solution was added to the cell culture well (to ensure that the DMSO concentration in the culture system was […]), so that the final drug concentration is 100 nM, 10 nM, 3 nM, 1 nM, 0.3 nM, and 0.1 nM. Two wells were set for each concentration. The plate was gently shaken and mixed. Additionally, negative control wells (containing an equal amount of DMSO) and positive control wells were included.
(3) After 24 hours of cultivation, the cells were lysed using RIPA cell lysate, and the proteins were extracted. The protein concentration was measured using a BCA assay kit. 5× concentrated protein buffer was loaded, heated at 100° C. for 5 min, and then the sample was stored at −20° C.
(4) For each well, 30 μg of protein was loaded to polyacrylamide gel for electrophoresis.
(5) The protein was transferred from polyacrylamide gel to PVDF membrane, and sealed at room temperature with 5% skimmed milk for 1 h, which was then incubated with the primary antibodies (Anti-SHP2 rabbit mAb and Anti-GAPDH rabbit mAb) at 4° C. overnight. The membrane was washed three times with TBST solution, 10 minutes for each time. After that, the membrane was incubated with the secondary antibodies (horseradish peroxidase labeled goat anti-rabbit IgG) at room temperature for 2 h, and then washed three times with TBST solution, 10 minutes for each time, followed by exposure.
(6) The images were analyzed with Image J grayscale, and the degradation ratio of protein bands in the test group was calculated, based on the negative control group (DMSO) (100%).
(7) Using the Dose-response-inhibition equation in the data processing software GraphPad Prism 8, the DC50 value was obtained (which represents the drug concentration corresponding to 50% degradation of the target protein).
Using similar methods and different cell lines, the degradation activity of the compound according to the present invention on SHP2 protein of different cell lines was tested under suitable culture conditions.

Row | Compound | DC50
1 | CC1(N)CCN(c2cnc(Sc3cccc(NC(=O)C4CCC(N5CC=C(c6ccc(C(=O)NCc7ccc8c(c7)CN(C7CCC(=O)NC7=O)C8=O)nc6)CC5)CC4)c3)cn2)CC1 (single isomer, unassigned) [Compound 300] | > 1 µM
2 | CC1(N)CCN(c2cnc(Sc3cccc(NC(=O)C4CCC(N5CC=C(c6ccc(C(=O)NCc7ccc8c(c7)CN(C7CCC(=O)NC7=O)C8=O)nc6)CC5)CC4)c3)cn2)CC1 (single isomer, unassigned) [Compound 301] | > 1 µM
3 | CC1(N)CCN(c2cnc(Sc3cccc(NC(=O)C4CC45CCC(N4CC=C(c6ccc(C(=O)NCc7ccc8c(c7)CN(C7CCC(=O)NC7=O)C8=O)nc6)CC4)CC5)c3)cn2)CC1 (single isomer, unassigned) [Compound 314] | > 1 µM
4 | CC1(N)CCN(c2cnc(Sc3cccc(NC(=O)C4CC45CCC(N4CC=C(c6ccc(C(=O)NCc7ccc8c(c7)CN(C7CCC(=O)NC7=O)C8=O)nc6)CC4)CC5)c3)cn2)CC1 (single isomer, unassigned) [Compound 315] | > 1 µM
5 | CC1(N)CCN(c2cnc(Sc3cccc(NC(=O)C4CC45CCC(N4CC=C(c6ccc(C(=O)Nc7ccc8c(c7)CN(C7CCC(=O)NC7=O)C8=O)nc6)CC4)CC5)c3)cn2)CC1 (single isomer, unassigned) [Compound 316] | > 1 µM
6 | CC1(N)CCN(c2cnc(Sc3cccc(NC(=O)C4CC45CCC(N4CC=C(c6ccc(C(=O)NCc7ccc8c(c7)CN(C7CCC(=O)NC7=O)C8=O)nn6)CC4)CC5)c3)cn2)CC1 (single isomer, unassigned) [Compound 318] | > 1 µM
7 | CC1(N)CCN(c2cnc(Sc3cccc(NC(=O)C4CC45CCC(N4CC=C(c6ccc(C(=O)NCc7ccc8c(c7)CN(C7CCC(=O)NC7=O)C8=O)nn6)CC4)CC5)c3)cn2)CC1 (single isomer, unassigned) [Compound 319] | > 1 µM
8 | CC1(N)CCN(c2cnc(Sc3cccc(NC(=O)C4CC45CCC(N4CC=C(c6ccc(C(=O)Nc7ccc8c(c7)CN(C7CCC(=O)NC7=O)C8=O)nn6)CC4)CC5)c3)cn2)CC1 (single isomer, unassigned) [Compound 320] | > 1 µM
9 | CC1(N)CCN(c2cnc(Sc3cccc(NC(=O)C4CC45CCC(N4CC=C(c6ccc(C(=O)Nc7ccc8c(c7)CN(C7CCC(=O)NC7=O)C8=O)nn6)CC4)CC5)c3)cn2)CC1 (single isomer, unassigned) [Compound 321] | < 0.1 µM
10 | CC1(N)CCN(c2cnc(Sc3cccc(NC(=O)C4CC45CCC(N4CC=C(c6ccc(C(=O)N7CCN(c8ccc9c(c8)CN(C8CCC(=O)NC8=O)C9=O)CC7)nc6)CC4)CC5)c3)cn2)CC1 (single isomer, unassigned) [Compound 322] | > 1 µM
11 | CC1(N)CCN(c2cnc(Sc3cccc(NC(=O)C4CC45CCC(N4CC=C(c6ccc(C(=O)N7CCN(c8ccc9c(c8)CN(C8CCC(=O)NC8=O)C9=O)CC7)nc6)CC4)CC5)c3)cn2)CC1 (single isomer, unassigned) [Compound 323] | > 1 µM
12 | O=C1CCC(N2Cc3cc(CNC(=O)c4ccc(N5CCC6(CN(CCCCCCC(=O)Nc7cccc(Sc8cnc(N9CCCCC9)cn8)c7)C6)C5)nn4)ccc3C2=O)C(=O)N1 (stereo not shown) [Compound 212] | > 1 µM
13 | CC1(N)CCN(c2cnc(Sc3cccc(NC(=O)CCCCCOc4ccc(-c5ccc(C(=O)NCc6ccc7c(c6)CN(C6CCC(=O)NC6=O)C7=O)nc5)cc4)c3)cn2)CC1 (stereo not shown) [Compound 213] | > 1 µM
14 | CC1(N)CCN(c2cnc(Sc3cccc(NC(=O)CCN4CC5(CCC(OCCNc6ccc(C(=O)NCc7ccc8c(c7)CN(C7CCC(=O)NC7=O)C8=O)nn6)CC5)C4)c3)cn2)CC1 (stereo not shown) [Compound 214] | > 1 µM
15 | CC1(N)CCN(c2cnc(Sc3cccc(NC(=O)CCCCCCN4CCC5(CC4)CC(=O)N(CC(=O)NCc4ccc6c(c4)CN(C4CCC(=O)NC4=O)C6=O)C5)c3)cn2)CC1 (stereo not shown) [Compound 215] | > 1 µM
16 | C[C@@H]1OCC2(CCN(c3cnc(Sc4cccc(NCc5ccc(CN6CCN(c7ccc(C(=O)NCc8ccc9c(c8)CN(C8CCC(=O)NC8=O)C9=O)nn7)CC6)cc5)c4)cn3)CC2)[C@@H]1N (stereo partly shown) [Compound 253] | > 1 µM
17 | CC1(N)CCN(c2cnc(Sc3cccc(NCc4ccc(CN5CCN(c6ccc7c(c6)CN(C6CCC(=O)NC6=O)C7=O)CC5)cc4)c3)cn2)CC1 (stereo not shown) [Compound 254] | > 1 µM

Row | Compound | DC50
18 | C[C@@H]1OCC2(CCN(c3cnc(Sc4cccc(NCc5ccc(CN6CCN(c7ccc8c(c7)CN(C7CCC(=O)NC7=O)C8=O)CC6)cc5)c4)cn3)CC2)[C@@H]1N (stereo partly shown) [Compound 255] | > 1 µM
19 | CC1(N)CCN(c2cnc(Sc3cccc(NCC4CCC(N5CCN(c6ccc7c(c6)CN(C6CCC(=O)NC6=O)C7=O)CC5)CC4)c3)cn2)CC1 (stereo not shown) [Compound 256] | > 1 µM
20 | CC1(N)CCN(c2cnc(Sc3cccc(NCc4ccc(N5CCN(c6ccc(C(=O)NCc7ccc8c(c7)C(=O)N(C7CCC(=O)NC7=O)C8)nn6)CC5)c(F)c4)c3)cn2)CC1 (stereo not shown) [Compound 258] | > 1 µM
21 | CC1(N)CCN(c2cnc(Sc3cccc(NC(=O)c4ccc(N5CCN(c6ccc(C(=O)NCc7ccc8c(c7)C(=O)N(C7CCC(=O)NC7=O)C8)nn6)CC5)c(F)c4)c3)cn2)CC1 (stereo not shown) [Compound 260] | > 1 µM
22 | C[C@@H]1OCC2(CCN(c3cnc(Sc4cccc(NC(=O)c5ccc(N6CCN(c7ccc(C(=O)NCc8ccc9c(c8)C(=O)N(C8CCC(=O)NC8=O)C9)nn7)CC6)c(F)c5)c4)cn3)CC2)[C@@H]1N (stereo partly shown) [Compound 261] | < 0.1 µM
23 | C[C@@H]1OCC2(CCN(c3cnc(Sc4cccc(NC(=O)CCCN5CCN(c6ccc(C(=O)NCc7ccc8c(c7)C(=O)N(C7CCC(=O)NC7=O)C8)nn6)CC5)c4)cn3)CC2)[C@@H]1N (stereo partly shown) [Compound 262] | > 1 µM
24 | C[C@@H]1OCC2(CCN(c3cnc(Sc4cccc(NC(=O)COc5ccc(N6CCN(c7ccc(C(=O)NCc8ccc9c(c8)CN(C8CCC(=O)NC8=O)C9=O)nn7)CC6)cc5)c4)cn3)CC2)[C@@H]1N (stereo partly shown) [Compound 263] | < 0.1 µM
25 | CC1(N)CCN(c2cnc(Sc3cccc(NC(=O)COc4ccc(N5CCN(c6ccc(C(=O)NCc7ccc8c(c7)CN(C7CCC(=O)NC7=O)C8=O)nn6)CC5)cc4)c3)cn2)CC1 (stereo not shown) [Compound 265] | < 0.1 µM
26 | CC1(N)CCN(c2cnc(Sc3cccc(NC(=O)CCCCN4CCC(N5CCN(c6ccc(C(=O)NCc7ccc8c(c7)CN(C7CCC(=O)NC7=O)C8=O)nn6)CC5C(F)(F)F)C4)c3)cn2)CC1 (stereo not shown) [Compound 267] | < 0.1 µM
27 | CC1(N)CCN(c2cnc(Sc3cccc(NC(=O)C4CC(N5CCN(c6ccc7c(c6)C(=O)N(C6CCC(=O)NC6=O)C7=O)CC5)C4)c3)cn2)CC1 (stereo not shown) [Compound 268] | > 1 µM
28 | CC1(N)CCN(c2cnc(Sc3cccc(NC(=O)C4CC(N5CCN(c6ccc7c(c6)CN(C6CCC(=O)NC6=O)C7=O)CC5)C4)c3)cn2)CC1 (stereo not shown) [Compound 269] | > 1 µM
29 | CC1(N)CCN(c2cnc(Sc3cccc(NC(=O)C4CCC(N5CCN(c6ccc7c(c6)C(=O)N(C6CCC(=O)NC6=O)C7=O)CC5)CC4)c3)cn2)CC1 (stereo not shown) [Compound 270] | > 1 µM
30 | CC1(N)CCN(c2cnc(Sc3cccc(NC(=O)C4CCC(N5CCN(c6ccc7c(c6)CN(C6CCC(=O)NC6=O)C7=O)CC5)CC4)c3)cn2)CC1 (stereo not shown) [Compound 271] | > 1 µM
31 | CC1(N)CCN(c2cnc(Sc3cccc(NC(=O)C4CC45CCN(c4ccc(CN6CCN(c7ccc8c(c7)CN(C7CCC(=O)NC7=O)C8=O)CC6)cc4F)CC5)c3)cn2)CC1 (stereo not shown) [Compound 272] | > 1 µM
32 | C[C@@H]1OCC2(CCN(c3cnc(Sc4cccc(NC(=O)C5CC56CCN(c5ccc(CN7CCN(c8ccc9c(c8)CN(C8CCC(=O)NC8=O)C9=O)CC7)cc5F)CC6)c4)cn3)CC2)[C@@H]1N (stereo partly shown) [Compound 273] | > 1 µM
33 | CC1(N)CCN(c2cnc(Sc3cccc(NC(=O)CCN4CC=C(c5ccc(C(=O)NCc6ccc7c(c6)CN(C6CCC(=O)NC6=O)C7=O)nc5)C(C)(C)C4)c3)cn2)CC1 (stereo not shown) [Compound 274] | > 1 µM
34 | C[C@@H]1OCC2(CCN(c3cnc(Sc4cccc(NC(=O)CCN5CC=C(c6ccc(C(=O)NCc7ccc8c(c7)CN(C7CCC(=O)NC7=O)C8=O)nc6)C(C)(C)C5)c4)cn3)CC2)[C@@H]1N (stereo partly shown) [Compound 275] | > 1 µM
